Results as given in patent publication US20210062263A1, “A CLINICAL […]” (priority 2016, published 2021).

Legend:
[1] = Serum testosterone levels (RIA) in wounded male mice with testosterone implants; format: in vivo; conditions: for Serum Testosterone: Castrated + T males
Protocol: Six to nine week-old male Balb/cJASMU mice obtained from the Monash University Animal Services, Monash University, Clayton, Victoria, Australia, were housed prior to and during experiments under the following conditions: temperature range 21° C. to 24° C.; light cycle 12 hours light: 12 hours dark. All mice had access to food and water ad libitum.
Six week-old male mice were castrated under anesthesia three weeks prior to the studies on wound healing. The testes were gently pushed through the inguinal canal into the abdominal cavity and exposed through a small (0.5 cm) ventral midline abdominal incision. Each testis was gently dissected from its epididymis and removed after ligation of the testicular vasculature. All incisions were closed using two interrupted 5/0 silk sutures (Johnson & Johnson Medical, NSW, Australia).
(§1) Implants were prepared by cutting medical grade Silastic (polydimethylsiloxane) tubing (1.5 mm inner diameter, 2.3 mm outer diameter, Aunet Pty Ltd, WA, Australia) to the desired length (1 cm long) and sealing one end with Multi-Purpose Sealant (Dow Corning RTV Sealant). After 24 hours each tube was packed with either crystalline testosterone (Sigma #T-1500) or left empty (vehicle implant). The open end was then sealed and implants were allowed to dry for at least 24 hours prior to surgical implantation. The implant size was considered to be the length of tubing containing testosterone. Prior to subcutaneous insertion, implants were sterilized in absolute ethanol for 10 minutes which also removed any androgen adhering to its external surface. Each testosterone or vehicle implant was inserted subcutaneously via a 5-mm nape incision in intact and castrated male mice three weeks before the wound healing experiments and the incision site was closed with 5/0 sutures.
(§2) Under anesthesia, the dorsal flanks of each 9 weeks old mouse (n=6/group) were carefully shaved and cleansed with 70% v/v ethanol. To create wounds, full-thickness, parasagittal linear incisions (1 cm long) were made through the skin and underlying the panniculus carnosus muscle on each flank and each wound was closed using two 5/0 silk sutures placed 3 mm from each end of the wound. Post operatively, all animals received analgesia to minimize pain, were allowed to recover on a heated pad and then housed in groups of four animals per cage. Incisions were examined and assessed on days 3, 5, 7 and post-wounding.
(§3) Blood samples were collected between 10:00 and 10:30 am by cardiac puncture at different time points (0d, 3d, 5d, 7d or 14d) according to the experimental protocol. The samples were allowed to coagulate for 30 minutes then centrifuged at 10,000 g for 10 minutes to collect serum which was stored at −20° C. until assayed.
Serum testosterone levels were measured using a direct radioimmunoassay (RIA) testosterone kit (IM1119—Immunotech, Marseilles, France) according to the manufacturer's instructions, using I^125-labeled testosterone as a radioactive tracer. The antibody used in the immunoassay is highly specific for testosterone with extremely low cross-reactivity (<0.75%) for related molecules such as 5a-dihydrotestosterone or […]. The assay sensitivity for serum testosterone was 15.63 pg/ml and the intra-assay variation was 7.9%. All samples from one experiment were measured in the same assay.

[2] = system: activin A; experiment: Serum activin A levels (ELISA) in wounded male mice; format: in vivo
Protocol: as §1, §2, §3
Activin A levels were measured in serum and skin using a specific ELISA and human recombinant activin A as a standard, according to manufacturer's instructions (Oxford Bioinnovations, Cherwell, Oxfordshire, UK) [Knight et al. (1996) J Endocrinol 148(2):267-279]. The assay sensitivity for serum activin A was 11 pg/ml, with an intra-assay variation of 4.6-7.5% and an inter-assay variation of 10.6%.

[3] = system: follistatin; experiment: Serum follistatin levels (RIA) in wounded male mice; format: in vivo
Protocol: as §1, §2, §3
Serum and skin follistatin levels were measured by RIA using human recombinant follistatin 288 as standard and as tracer following labeling with I^125 (O'Conner et al. (1999) Hum Reprod 14(3):827-832). The assay sensitivity for serum follistatin was 1.52 ng/ml, and the intra-assay variation was 5.4-5.7%.

[4] = system: activin A; experiment: Cutaneous activin A levels (ELISA) after wounding; format: in vivo, mice; conditions: testosterone replacement, day 3 post-wounding
Source text: as §2
Following exsanguination, anesthetized animals were killed by cervical dislocation. Full-thickness specimens of the skin wound, consisting of the entire wound scar surrounded by a border of about 3-mm, were excized and bisected. Half of each sample was frozen at −80° C. and the other half was fixed in 4% v/v paraformaldehyde (Sigma-Aldrich, NSW, Australia) and processed for histology. Unwounded skin was obtained from the dorsum of the trunk near the tail of each animal to determine protein levels. […]
Activin A levels were measured in serum and skin using a specific ELISA and human recombinant activin A as a standard, according to manufacturer's instructions (Oxford Bioinnovations, Cherwell, Oxfordshire, UK) [Knight et al. (1996) J Endocrinol 148(2):267-279]. […]

[5] = system: IL-6; experiment: Cutaneous IL-6 levels (ELISA) after wounding; format: in vivo, mice
Protocol: (§4) Frozen samples of wounded and unwounded skin were homogenized (Janke & Kunkel Ultraturrax T25 homogenizer, IKA Labortechnik, Staufen, Germany) in 1% v/v protease inhibitor (Calbiochem, San Diego, Calif.) and the homogenates were centrifuged at 4° C. to remove debris prior to assay.
(§5) Cutaneous levels of IL-6 and TNF-α were measured in skin samples using ELISAs according to the manufacturer's instructions (R&D Systems Inc, MN, USA). The sensitivity of the IL-6 ELISA was 5.97 pg/ml; the intra-assay variation was of 3.4% and the inter-assay variation was 4.1%. Mouse recombinant was used as a standard for the TNF-α assay; the sensitivity of the ELISA was 9.04 pg/ml; the intra-assay variation was of 12.8% and the inter-assay variation was 12.7%. The concentrations are expressed per mg of tissue (wet weight).

[6] = system: TNF-α; experiment: Cutaneous TNF-α levels (ELISA) after wounding; format: in vivo, mice
Protocol: as §4, §5

With C[C@]12CC[C@H]3[C@@H](CCC4=CC(=O)CC[C@@]43C)[C@@H]1CC[C@@H]2O [testosterone] the “Serum Testosterone” value ([1]; 0 d) was 5.7 ± 0.8 ng/mL, the “Serum Testosterone” value ([1]; 3 d) was 5.4 ± 0.5 ng/mL and the “Serum Testosterone” value ([1]; 5 d) was 5.9 ± 0.4 ng/mL. The “Serum Testosterone” value ([1]; 7 d) was 5.2 ± 0.5 ng/mL, the “Serum Testosterone” value ([1]; 14 d) was 4.5 ± 0.1 ng/mL and the “serum testosterone levels (in words)” value ([1]; castrated males, testosterone replacement) was “back to control levels”. The concentration at 0 d ([1]; male, Balb/cJASMU, mouse, serum, subcutaneous, 1 cm Silastic implant packed with crystalline testosterone, Intact + T males, 0 d) was 5.3 ± 0.4 ng/mL, the concentration at 3 d ([1]; male, Balb/cJASMU, mouse, serum, subcutaneous, 1 cm Silastic implant packed with crystalline testosterone, Intact + T males, 3 d) was 5.9 ± 0.4 ng/mL and the concentration at 5 d ([1]; male, Balb/cJASMU, mouse, serum, subcutaneous, 1 cm Silastic implant packed with crystalline testosterone, Intact + T males, 5 d) was 7.8 ± 0.9 ng/mL. The concentration at 7 d ([1]; male, Balb/cJASMU, mouse, serum, subcutaneous, 1 cm Silastic implant packed with crystalline testosterone, Intact + T males, 7 d) was 6.7 ± 0.4 ng/mL, the concentration at 14 d ([1]; male, Balb/cJASMU, mouse, serum, subcutaneous, 1 cm Silastic implant packed with crystalline testosterone, Intact + T males, 14 d) was 6.3 ± 0.3 ng/mL and the “Serum Activin A” value ([2]; Castrated + T males, 0 d) was 80.2 ± 7.8 pg/mL. For the same compound, the “Serum Activin A” value ([2]; Castrated + T males, 3 d) was 65.4 ± 5.8 pg/mL, the “Serum Activin A” value ([2]; Castrated + T males, 5 d) was 54.9 ± 7.7 pg/mL and the “Serum Activin A” value ([2]; Castrated + T males, 7 d) was 83.8 ± 7.3 pg/mL. For the same compound, the “Serum Activin A” value ([2]; Castrated + T males, 14 d) was 93 ± 7.7 pg/mL, the “Serum Activin A” value ([2]; Intact + T males, 0 d) was 65.4 ± 6.8 pg/mL and the “Serum Activin A” value ([2]; Intact + T males, 3 d) was 85.2 ± 5 pg/mL. For the same compound, the “Serum Activin A” value ([2]; Intact + T males, 5 d) was 74.9 ± 6.9 pg/mL, the “Serum Activin A” value ([2]; Intact + T males, 7 d) was 92.1 ± 3.8 pg/mL and the “Serum Activin A” value ([2]; Intact + T males, 14 d) was 74.6 ± 3.5 pg/mL. The “serum activin levels (in words)” value ([2]; castrated males, testosterone replacement vs castrated+Vh, days 3 and 5 post wounding) was “decreased serum activin levels”, the “Serum Follistatin” value ([3]; Castrated + T males, 0 d) was 4.3 ± 0.5 ng/mL and the “Serum Follistatin” value ([3]; Castrated + T males, 3 d) was 4.1 ± 0.3 ng/mL. The “Serum Follistatin” value ([3]; Castrated + T males, 5 d) was 3.9 ± 0.2 ng/mL, the “Serum Follistatin” value ([3]; Castrated + T males, 7 d) was 4.5 ± 0.3 ng/mL and the “Serum Follistatin” value ([3]; Castrated + T males, 14 d) was 4.5 ± 0.5 ng/mL. For the same compound, the “Serum Follistatin” value ([3]; Intact + T males, 0 d) was 3.6 ± 0.03 ng/mL, the “Serum Follistatin” value ([3]; Intact + T males, 3 d) was 3.8 ± 0.3 ng/mL and the “Serum Follistatin” value ([3]; Intact + T males, 5 d) was 3.8 ± 0.1 ng/mL. The “Serum Follistatin” value ([3]; Intact + T males, 7 d) was 3.8 ± 0.4 ng/mL, the “Serum Follistatin” value ([3]; Intact + T males, 14 d) was 3.6 ± 0.2 ng/mL and the “increase in cutaneous levels of activin A” value ([4]; castrated males) was 17 fold. The “cutaneous levels of activin A relative to castrated males” value [4] was “twice”, the “cutaneous IL-6 relative to castrated group” value ([5]; castrated males, testosterone replacement, day 3 post-wounding) was “twice” and the “cutaneous IL-6 relative to intact male group” value ([5]; intact males treated with testosterone, day 3 post-wounding) was “almost twice”. For the same compound, the “basal IL-6 levels in skin” value ([5]; intact males treated with testosterone, unwounded skin) was “increased basal IL-6 levels”, the TNF-α skin levels ([6]; castrated males, testosterone replaced vs castrated males, days 5 and 7) was “significantly higher” and the TNF-α skin levels ([6]; castrated males, testosterone replaced, day 7 post-wounding) was “significantly increased”. For the same compound, the TNF-α skin levels ([6]; intact males given testosterone vs intact group, day 3 post-wounding) was “significantly increased”.
